# Legend:
# Type in all cases: in vivo, mouse
# [1] = system: Tg26^HE mice; assay: Tg26^HE mice (collapsing glomerulopathy model), vehicle or alpelisib for 8 weeks; conditions: 8 weeks treatment
# Experimental: (§1) For the uninephrectomy experiments, the right kidneys were removed under anesthesia. For the medical treatment of mice, 50 mg kg −1 alpelisib (MedChem Tronica) in 1% carboxymethylcellulose (Sigma Aldrich)+0.5% Tween (Sigma Aldrich) or vehicle (1% carboxymethylcellulose+0.5% Tween) was administered by oral gavage daily for the indicated periods of time. Blood and urines were obtained at the indicated times. At euthanasia, blood, urines, kidneys were harvested. In some experiments, spleens, hearts, and bone marrow (BM) in femurs and tibias were harvested as well. Tissues were fixed in 4% paraformaldehyde and paraffin embedded for immunohistochemical analysis, snap-frozen in Optimal Cutting Temperature (OCT), or stored at −80° C. for mRNA or protein analysis.
# (§2) Mouse blood counts were analyzed using a hematology analyzer (ProCyte Dx; IDEXX Laboratories). Mouse serum creatinine, blood urea nitrogen, urinary albumin, and urinary creatinine were evaluated using an AU5800 (Beckman Coulter) autoanalyzer. Serum anti-dsDNA measurement was performed according to the manufacturer's instruction using mouse anti-dsDNA ELISA kit (LBIS). The absorbance was measured using Ininite M Nano (TECAN).
# (§3) 4-μm kidney sections were stained with periodic acid-Schiff (PAS), Masson's Trichrome (MT), Periodic acid metenamine silver (PAM) or Hematoxylin and Eosin (HE) staining for histological analysis. The degree of glomerular lesions was evaluated using the following scoring system: 0=no lesion, 1=affecting up to 25% of the glomerulus, 2=affecting 25-50% of the glomerulus, 3=affecting 50-75% of the glomerulus, and 4=affecting 75-100%. At least 50 glomeruli per sample were measured for each analysis. An indirect immunoperoxidase method was used for immunohistochemistry. Briefly, after deparaffinization, antigen retrieval was performed with citrate buffer (pH6) or Tris-EDTA buffer (pH9 or pH6) using microwave or high temperature (95° C.). Endogenous peroxidase activity was quenched using 3% hydrogen peroxide; nonspecific protein binding was blocked using 2.5% normal horse serum (Vector Laboratories), and endogenous biotin activity was quenched using the Avidin/Biotin Blocking Kit (Vector Laboratories). When using mouse primary antibodies on mouse tissue, Klear mouse blocking reagent (Diagomics) was used to block endogenous mouse immunoglobulins. After blocking, the tissue sections were incubated with the primary antibodies overnight at 4° C. The following primary antibodies were used: rabbit anti-Ki67 antibody (SP6; Thermo Fisher Scientific), rabbit anti-P-S6RP antibody (D68F8; Cell Signaling Technology), mouse anti-P-AKT (Ser473) antibody (587F11; Cell Signaling Technology), rabbit anti-P-AKT (Thr308) antibody (C31E5E; Cell Signaling Technology), mouse anti-S6RP antibody (54E2; Cell Signaling Technology), chicken anti-GFP antibody (Abcam), guinea pig anti-Nephrin antibody (GP-N2; Progen), rabbit anti-Podocin antibody (P0372; Sigma Aldrich), mouse anti-WTI antibody (6F-H2; DAKO). The corresponding secondary antibodies including anti-mouse IgG, anti-rabbit IgG, anti-guinea pig IgG, biotinylated anti-rabbit IgG (Vector Laboratories), and biotinylated anti-mouse IgG (Vector Laboratories) were applied. For Avidin/Biotin detection, an R.T.U. Vectastain Kit (Vector Laboratories) or streptavidin (Thermo Fisher Scientific) was used. The immunoreactive antigens sites were detected with hydrogen peroxide and diaminobenzidine. For frozen immunofluorescent staining, frozen tissue sections (4 μm) were briefly air dried and fixed in 50% methanol/50% acetone. The sections were then blocked with 2.5% normal horse serum and incubated with primary antibodies: guinea pig anti-Nephrin antibody (GP-N2; Progen) overnight at 4° C. The sections were then incubated at room temperature for 40 min with secondary antibodies: fluorescein isothiocyanate-conjugated (FITC) anti-mouse IgG (Sigma Aldrich), FITC anti-mouse IgM (BD Biosciences), or FITC anti-mouse C3 antibody (abcam). […]
# [2] = system: PIK3CA^Pod-HET mice; assay: PIK3CA^Pod-HET mice treated orally with alpelisib
# Experimental: as §1, §2
# as §3, with “diaminobenzidine.” for “diaminobenzidine. For frozen immunofluorescent staining, frozen tissue sections (4 μm) were briefly air dried and fixed in 50% methanol/50% acetone. The sections were then blocked with 2.5% normal horse serum and incubated with primary antibodies: guinea pig anti-Nephrin antibody (GP-N2; Progen) overnight at 4° C. The sections were then incubated at room temperature for 40 min with secondary antibodies: fluorescein isothiocyanate-conjugated (FITC) anti-mouse IgG (Sigma Aldrich), FITC anti-mouse IgM (BD Biosciences), or FITC anti-mouse C3 antibody (abcam).”
# [3] = system: uninephrectomized Tg26^HE mice; assay: Uninephrectomized Tg26^HE mice (accelerated collapsing glomerulopathy model), vehicle or alpelisib for 4 weeks
# Experimental: Scale bar P-S6RP, and P-AKTSer473 mean intensity quantification (n=5-6 mice per group). P. Serum creatinine level, and Blood urea nitrogen level of Tg26WT and Tg26HE mice at the time of sacrifice (4 weeks following uninephrectomy and treated either with vehicle or alpelisib) (n=8-9 mice per group)
# as §1, §2
# as §3, with “acetone.” for “acetone. The sections were then blocked with 2.5% normal horse serum and incubated with primary antibodies: guinea pig anti-Nephrin antibody (GP-N2; Progen) overnight at 4° C. The sections were then incubated at room temperature for 40 min with secondary antibodies: fluorescein isothiocyanate-conjugated (FITC) anti-mouse IgG (Sigma Aldrich), FITC anti-mouse IgM (BD Biosciences), or FITC anti-mouse C3 antibody (abcam).”
# [4] = 3 months old mice, oral, 2-3 weeks
structure (smiles),measurement,setting,value
"Cc1nc(NC(=O)N2CCC[C@H]2C(N)=O)sc1-c1ccnc(C(C)(C)C(F)(F)F)c1 [alpelisib, Alpelisib]",albuminuria,"[1]; 4 weeks old, vs vehicle",lower albuminuria
same,AKT/mTOR pathway,[1],profound AKT/mTOR pathway inhibition
same,kidney function,[1],not significantly improved
same,expression of podocyte differentiation markers,[1]; vs vehicle,higher expression of podocyte differentiation markers
same,fibrotic markers Col1a and Col3a,[1]; vs vehicle,reduced expression in fibrotic markers
same,glomerular lesions,[1]; vs vehicle,less severe glomerular lesions
same,inflammatory marker Tnfa,[1]; vs vehicle,lower expression
same,kidney volume,[1]; vs vehicle,reduction in kidney volume
same,tubular injury markers Lcn2 and KIM1,[1]; vs vehicle,lower expression of tubular injury markers
same,albuminuria,[2]; [4],progressive reduction in albuminuria
same,glomerular AKT/mTOR pathway,[2]; [4],glomerular inhibition of the AKT/mTOR pathway
same,podocyte size,[2]; [4],podocyte size reduction
same,gene expression anomalies (scRNA-seq),[2]; alpelisib-treated PIK3CA^Pod-HET mice,correction of various gene expression anomalies
same,podocyte populations (scRNA-seq of kidney cells),"[2]; alpelisib-treated, untreated PIK3CA^Pod-HET 23.7%, WT about 10%",11.7%
same,AKT/mTOR pathway in glomeruli,[3]; 4 weeks treatment,profoundly blunted
same,"expression of Col1a, Col3a and Lcn2",[3]; 4 weeks treatment,reduced expression
same,expression of podocyte markers,[3]; 4 weeks treatment,maintained expression of podocyte markers
same,"glomerular lesions, kidney histology",[3]; 4 weeks treatment,fewer glomerular lesions
same,ratio kidney/body weight,[3]; 4 weeks treatment,improved
same,albuminuria,"[3]; 4 weeks treatment, vs vehicle",significantly improved
same,"kidney function (serum creatinine, blood urea nitrogen)","[3]; 4 weeks treatment, vs vehicle",significantly improved
same,kidney lesions (title of FIG. 3),[3]; accelerated mouse model of collapsing glomerulopathy,improves kidney lesions
same,surfaces of the kidneys at sacrifice,"[3]; uninephrectomy at 4 weeks old, 4 weeks treatment",regular and smooth
